{"source": "patent US12458702B2", "about": "(NATIONAL TAIWAN UNIVERSITY, priority 2022, dated 2025)", "key": {"[1]": {"test_system": "HT-29", "experiment": "Cytotoxicity by SRB assay in HT-29 cells", "conditions": "Homo sapiens, HT-29, 48 h, read-out: IC50 HT-29", "description": "(§1) Cancer cell lines were obtained from ATCC unless otherwise noted. HT-29 and HCT-116 cells were cultured in Dulbecco's Modified Eagle Medium (DMEM, Thermo Fisher Scientific) with 10% fetal bovine serum (FBS, Thermo Fisher Scientific) and 1% antibiotic-antimycotic (Thermo Fisher Scientific).\n(§2) Briefly, CRC cells were seeded at a density of 5×10^3 cells/well in 96-well microtiter plates (100 μL/well), separated into two groups with or without GSH. After incubation for 24 hours, the culture medium was replaced by fresh medium (100 μL). […] After incubation, 10% cold trichloroacetic acid was gently added to each well and incubated at 4° C. for 1 h. The medium was removed, carefully washed with water, and dried at room temperature. […] The optical density (O.D.) was measured at 510 nm with Multi-Mode Microplate Reader (SpectraMax Paradigm, Beckman Coulter, U.S.). The fraction of cell survival was calculated as follows. Survival fraction=(OD treated−blank)/(OD control−blank). […] Each experiment was repeated three times."}, "[2]": {"test_system": "orthotopic CRC mice model", "experiment": "Orthotopic AOM/DSS-induced CRC mice model, tumor area", "type": "in vivo, BALB/c mice", "conditions": "SN-38 series; i.v. once every two days for two weeks; 40 mg/kg vs irinotecan 40 mg/kg"}, "[3]": {"test_system": "HCT-116", "experiment": "Cytotoxicity by SRB assay in HCT-116 cells", "type": "cell-based, human", "conditions": "48 h, prepared in DMSO, read-out: IC50 HCT-116", "procedure": "The fraction of cell survival was calculated as follows. Survival fraction=(OD treated−blank)/(OD control−blank). […] Each experiment was repeated three times."}, "[4]": {"test_system": "HT-29", "description": "as §1, §2"}}, "note": "Where two headings read alike, the source gives them in different places.", "data": [{"smiles": "CCc1c2c(nc3ccc(OCc4ccc(NC(=O)[C@H](CCCNC(N)=O)NC(=O)[C@@H](NC(=O)CCCCN5C(=O)CC(SCCOCCOCCOc6cc(O)c(C(=O)CCc7ccc(O)cc7)c(O[C@@H]7O[C@H](CO)[C@@H](O)[C@H](O)[C@H]7O)c6)C5=O)C(C)C)cc4)cc13)-c1cc3c(c(=O)n1C2)COC(=O)[C@]3(O)CC", "note": "(some centres unmarked) [Compound 37]", "values": [{"measurement": "IC50", "setting": "[1]", "result": "> 100", "unit": "µM"}, {"measurement": "anti-tumor efficacy (tumor area), in words", "setting": "[2]", "result": "ameliorated the tumor area"}, {"measurement": "IC50", "setting": "[3]", "result": "3.25 ± 0.42", "unit": "µM"}, {"measurement": "IC50", "setting": "[3]; Homo sapiens, HCT-116, 48 h", "result": "3 to 7", "unit": "µM"}, {"measurement": "cytotoxicity in HT-29 cell line, in words", "setting": "[4]", "result": "less sensitive"}]}]}
